Reference: patent US20100113610A1, “METHODS FOR CONTROLLING INFLAMMATORY AND IMMUNOLOGICAL DISEASES” (Purdue Research Foundation, priority 2007, published 2010)

Tests used:
[1] = tested on: FoxP3; test: FoxP3 induction in activated neonatal human cord blood CD4+CD25- naive T cells (RT-PCR, flow cytometry); format: cell-based; conditions: for induction of FoxP3+ T cells by single agent: ATRA 2 nM or TGF-β1 2 ng/ml; for optimal concentration for induction of FoxP3: human cord blood CD4+CD25- T cells
Protocol: All-trans-retinoic acid (ATRA), a major vitamin A metabolite, induces FoxP3 expression in T cells. FoxP3 is the master transcription factor for CD4^+CD25^+ regulatory T cells. […] Neonatal human cord blood CD4^+CD25^− naïve T cells were cultured in a T cell activation condition with IL-2 (25 U/ml) and phytohemagglutinin (PHA, 5 μg/m) in the presence or absence of all-trans retinoic acid (ATRA, 2 nM) for 6 days. Naïve CD4^+CD25^− T cells were activated in the absence and presence of ATRA, and examined for expression of FoxP3 mRNA and protein by RT-PCR analysis (FIG. 1A), flow cytometry analysis (FIG. 1B) and dose-dependent induction of FoxP3 by ATRA (FIG. 1C).
As RARα can be induced in T cells in response to ATRA, the function of this receptor in induction of FoxP3 was examined using an RARα antagonist, Ro41-5253. […] FoxP3 protein expression in CD4 T cells, determined by intracellular staining by PE-labeled anti-FoxP3 antibody, is shown as FACS dot plots (FIG. 3A) and graphs (FIG. 3B). Neonatal human cord blood CD4^+CD25^− T cells were cultured in a T cell activation condition with IL-2 (25 U/ml ) and PHA (5 μg/ml) in the presence and absence of indicated agonists or antagonists for 6 days. The concentrations used to obtain the data were 2 nM (ATRA), 1 μM (Ro41-5253), 5 nM (AM-580), and 10 μM (methoprene acid).
TGF-β is a potent inducer of FoxP3 (Chen et al., 2003, J Exp Med). Therefore, the interaction between ATRA and TGF-β in their effects on FoxP3 expression was examined. […] Neonatal human cord blood CD4^+CD25^− T cells were cultured in a T cell activation condition with IL-2 (100 U/ml) and PHA (5 μg/ml) in the presence and absence of indicated agonists or antagonists for 6 days. Ro41-5253 is a RARα antagonist. […] ATRA was used at 2 nM.

[2] = tested on: α4β7+ mucosal tissue homing FoxP3+ T cells; test: Intestinal FoxP3+ T cell numbers in mice fed food with or without vitamin A; format: in vivo, mouse; conditions: 6 weeks
Protocol: Regulation of mucosal FoxP3^+ cell numbers by vitamin A in vivo and in vitro. The in vivo effect of vitamin A on numbers of intestinal FoxP3^+ T cells was determined. Adult mice were fed with food with (control mice) or without vitamin A for 6 weeks, and then the numbers of FoxP3^+ T cells in small and large intestine, and mesenteric lymph nodes were determined by flow analysis (FIG. 11A).

[3] = tested on: RARα; test: RT-PCR of RAR and RXR mRNA expression in CD4+CD25- T cells activated in ATRA; format: cell-based, human; conditions: ATRA 2 nM, IL-2 + PHA, 6 days; 6 RAR and RXR receptors
Protocol: RARα, RARβ and RARγ are the major receptors that are likely to mediate the function of ATRA. The mRNA expression of RARs and RXRs in freshly isolated CD4^+CD25^+ and CD4^+CD25^− T cells was determined, as well as in CD4^+CD25^−T cells activated in ATRA. Neonatal human cord blood CD4^+CD25^− naïve T cells were cultured in a T cell activation condition with IL-2 (25 U/ml) and PHA (5 μg/ml) in the presence or absence of ATRA (2 nM) for 6 days. Freshly isolated CD4^÷CD25^+ and CD4^+CD25^− cells are shown for comparison. RT-PCR was performed, and a representative set of results out of 4 independent experiments are shown.

[4] = tested on: CD4+CD25- T cells; test: 3H-thymidine incorporation assay: proliferation and suppression of CD4+CD25- target T cells in co-culture; format: cell-based, human; conditions: treated 6-7 days
Protocol: ATRA-treated T cells are suppressor cells with unique effector molecules. Generally, regulatory T cells are hypo-proliferative and can suppress the proliferation of target T cells (CD4^+CD25^− T cells) in co-culture. It was therefore determined if the ATRA-induced FoxP3^+ cells had these features. […] Freshly isolated CD4^+CD25^− T cells were cultured with ATRA (2 nM), TGF-p31 (2 ng/ml) or ATRA+TGF-β1 in a T cell activation condition (IL-2 +PHA) for 6-7 days. Then, the T cells were co-cultured with CD4^+CD25^− cells for 5 additional days. A 3H-thymidine incorporation assay was performed to assess the proliferation potentials of the cultures.

[5] = tested on: granzymes; test: Expression of granzyme A, granzyme B and perforin in induced FoxP3+ T cells; format: cell-based, human; conditions: for granzyme A expression in induced FoxP3+ cells: FoxP3+ T cells from cord blood CD4+CD25- T cells
Protocol: Regulatory T cells may use a number of different effector mechanisms to suppress target cells. Granzymes are a class of such effector molecules implicated in regulatory function. […] FoxP3^+ T cells, generated from cord blood CD4^+CD25^− T cells with ATRA, were examined for their expression of granzyme A, granzyme B and perforin. Also included were FoxP3^+T cells, generated with IL-2 (control) or IL-2 (25 U/ml) and TGF-β (2 ng/ml). Expression of granzyme A and B is shown in panel A. Three independent experiments were combined and averages and SEM are shown (panel B).

[6] = tested on: FoxP3; test: FoxP3 induction in mouse DO11.10 (Rag2-/-) CD4+CD25- T cells; format: cell-based; conditions: for induction of FoxP3 in mouse T cells: irradiated splenocytes, OVA 323-339 peptide, IL-2 100 U/ml
Protocol: It was determined if ATRA could induce FoxP3 in mouse T cells. […] These CD4^+ CD25^− T cells were cultured in a T cell activation condition (irradiated splenocytes with […] of OVA 323-339 antigen peptide and 100 U/ml of IL-2) in the presence or absence of ATRA. […] Other retinoids such as AM-580 (a RARα agonist) and methoprene acid (a RXR agonist) were also tested.

[7] = tested on: FoxP3; test: Conversion of mouse naive T cells into mucosal tissue homing FoxP3+ T cells with ATRA and cytokines; format: cell-based; conditions: 6-7 days
Protocol: Also provided is a method with which almost all of naïve T cells can be converted into mucosal tissue homing FoxP3^+ T cells by utilizing ATRA and cytokines. Mouse naïve T cells were cultured with ATRA (1-100 nM), IL-2 (10-1000 U/ml) and TGF-β1 (1-100 ng/ml), together with TCR activators (concanavalin A or PHA at 1-10 μg/ml) for 6-7 days. […] This method reproducibly generates 92-99% pure mucosal tissue homing FoxP3^+ T cells.

[8] = tested on: FoxP3; test: FoxP3 induction in activated neonatal human cord blood CD4+CD25- naive T cells (RT-PCR, flow cytometry); format: cell-based; conditions: very high concentration (20 μM), IL-2 + PHA, 6 days

Molecule: CCCCCCCOc1cc2c(cc1/C(C)=C/c1ccc(C(=O)O)cc1)C(C)(C)CCS2(=O)=O [Ro41-5253]
- suppression of the FoxP3+ cell induction effect of ATRA ([1]; Ro41-5253 1 μM, ATRA 2 nM, 6 days): completely suppressed
- blocking of ATRA-induced versus TGF-β-induced FoxP3 induction ([1]; Ro41-5253, ATRA 2 nM, TGF-β1 2 ng/ml): blocked only ATRA-induced but not TGF-β-induced FoxP3 induction

Molecule: vitamin A
- numbers of α4β7+ mucosal tissue homing FoxP3+ T cells in the large and small intestines ([2]; vitamin A-deficient food versus control food with vitamin A): significantly smaller numbers
- numbers of FoxP3+ T cells in lymph nodes (MLN) ([2]; vitamin A-deficient food versus control food): no reduction

Molecule: CC1=C(/C=C/C(C)=C/C=C/C(C)=C/C(=O)O)C(C)(C)CCC1 [ATRA, All-trans-retinoic acid]
- effect of ATRA added to the culture with TGF-β on FoxP3+ T cell induction ([1]; ATRA 2 nM + TGF-β1 2 ng/ml, IL-2 100 U/ml + PHA, 6 days): enhanced the effect of TGF-β
- induction of FoxP3+ T cells by single agent ([1]; IL-2 100 U/ml + PHA, 6 days): clear effects
- levels of FoxP3 mRNA expression (RT-PCR) ([1]; ATRA 2 nM with IL-2 25 U/ml and PHA, 6 days, versus IL-2 alone): increased compared to IL-2 alone
- FoxP3+ cells at the protein level (flow cytometry) ([1]; ATRA 2 nM with IL-2 and PHA, 6 days, presence versus absence of ATRA): significantly more
- optimal concentration for induction of FoxP3 ([1]; IL-2 + PHA, 6 days): 2 to 10 nM
- RAR and RXR family receptor mRNA expression in response to ATRA [3]: most highly expressed receptor in response to ATRA was RARα
- suppressive activity of treated T cells on CD4+CD25- T cells ([4]; co-cultured 5 additional days): levels similar to that of TGF-β1-treated cells
- proliferation potential of treated T cells (3H-thymidine incorporation) ([4]; compared to fresh CD4+CD25- cells and cultured control cells): low proliferation potential
- granzyme A expression in induced FoxP3+ cells [5]: expressed granzyme A
- granzyme B or perforin-expressing cells among induced FoxP3+ cells ([5]; versus TGF-β induced FoxP3+ cells): Consistently more
- induction of FoxP3 in mouse T cells [6]: induced FoxP3 expression in T cells
- trafficking receptors of mouse FoxP3+ T cells primed in retinoic acid ([6]; mouse DO11.10 T cells): expressed the mucosal tissue homing receptors CCR9 and α4β7
- T cells after culture that were FoxP3+ regulatory T cells expressing the mucosal tissue homing receptor ([7]; ATRA 1-100 nM, IL-2 10-1000 U/ml, TGF-β1 1-100 ng/ml, TCR activators): ~95%
- purity of mucosal tissue homing FoxP3+ T cells reproducibly generated ([7]; ATRA, IL-2, TGF-β1 and TCR activators): 92-99%

Molecule: COC(C)(C)CCCC(C)C/C=C/C(C)=C/C(=O)O (centres unmarked) [methoprene acid]
- induction of FoxP3 in mouse T cells [6]: able to induce FOXP3 only at very high concentrations
- optimal dose for induction of FOXP3 in mouse T cells ([6]; mouse DO11.10 T cells): ~100 µM
- induction of FoxP3 by pan-RXR agonist [8]: only marginal effects

Molecule: TGF-β: a potent inducer of FoxP3 (cytokine)
- induction of FoxP3+ T cells by single agent ([1]; IL-2 100 U/ml + PHA, 6 days): clear effects
- granzyme A expression in induced FoxP3+ cells [5]: did not express granzyme A at significant levels

Molecule: CC1(C)CCC(C)(C)c2cc(C(=O)Nc3ccc(C(=O)O)cc3)ccc21 [AM-580]
- induction of FoxP3 by RARα-specific agonist ([1]; AM-580 5 nM, IL-2 + PHA, 6 days): able to induce FoxP3
- optimal concentration for induction of FoxP3 ([1]; IL-2 + PHA, 6 days): 5 nM
- induction of FoxP3 in mouse T cells [6]: good inducer of FoxP3 at low concentrations
